Experimental data from the NIST ThermoML archive (doi:10.1016/j.jct.2015.11.023).
± gives the expanded uncertainty stated by the source.

Tests used:
[1] = wn = mass fraction of the nth substance listed; settings: for surface tension liquid-gas: Maximal bubble pressure; for mass density: 100 kPa, Liquid, Vibrating tube method
[2] = refractive index (Na D-line) (dimensionless); wn = mass fraction of the nth substance listed; settings: 100 kPa, Liquid, Standard Abbe refractometry

CCCC[n+]1ccccc1.N#C[N-]C#N [1-butylpyridinium dicyanamide] + O
Settings | mass density [kg/m3] | refractive index | surface tension liquid-gas [mN/m]
[1], 303.15 K, w2 = 0.00123 | 1065.65 ± 2 | – | –
[1], 303.15 K, w2 = 0.00176 | – | – | 55.8 ± 0.5
[1], 303.15 K, w2 = 0.00269 | 1065.52 ± 2 | – | –
[1], 303.15 K, w2 = 0.0033 | – | – | 56.2 ± 0.5
[1], 303.15 K, w2 = 0.00417 | 1065.37 ± 2 | – | –
[1], 303.15 K, w2 = 0.00478 | – | – | 56.5 ± 0.5
[1], 303.15 K, w2 = 0.00567 | 1065.24 ± 2 | – | –
[1], 303.15 K, w2 = 0.00628 | – | – | 56.8 ± 0.5
[1], 303.15 K, w2 = 0.00714 | 1065.12 ± 2 | – | –
[1], 303.15 K, w2 = 0.0078 | – | – | 57.1 ± 0.5
[1], 308.15 K, w2 = 0.00123 | 1062.58 ± 2 | – | –
[1], 308.15 K, w2 = 0.00176 | – | – | 55.5 ± 0.5
[1], 308.15 K, w2 = 0.00269 | 1062.45 ± 2 | – | –
[1], 308.15 K, w2 = 0.0033 | – | – | 55.9 ± 0.5
[1], 308.15 K, w2 = 0.00417 | 1062.32 ± 2 | – | –
[1], 308.15 K, w2 = 0.00478 | – | – | 56.2 ± 0.5
[1], 308.15 K, w2 = 0.00567 | 1062.16 ± 2 | – | –
[1], 308.15 K, w2 = 0.00628 | – | – | 56.5 ± 0.5
[1], 308.15 K, w2 = 0.00714 | 1062.04 ± 2 | – | –
[1], 308.15 K, w2 = 0.0078 | – | – | 56.8 ± 0.5
[1], 313.15 K, w2 = 0.00123 | 1059.54 ± 2 | – | –
[1], 313.15 K, w2 = 0.00176 | – | – | 55.2 ± 0.5
[1], 313.15 K, w2 = 0.00269 | 1059.41 ± 2 | – | –
[1], 313.15 K, w2 = 0.0033 | – | – | 55.6 ± 0.5
[1], 313.15 K, w2 = 0.00417 | 1059.23 ± 2 | – | –
[1], 313.15 K, w2 = 0.00478 | – | – | 55.9 ± 0.5
[1], 313.15 K, w2 = 0.00567 | 1059.11 ± 2 | – | –
[1], 313.15 K, w2 = 0.00628 | – | – | 56.2 ± 0.5
[1], 313.15 K, w2 = 0.00714 | 1058.97 ± 2 | – | –
[1], 313.15 K, w2 = 0.0078 | – | – | 56.5 ± 0.5
[1], 318.15 K, w2 = 0.00123 | 1056.51 ± 2 | – | –
[1], 318.15 K, w2 = 0.00176 | – | – | 54.9 ± 0.5
[1], 318.15 K, w2 = 0.00269 | 1056.38 ± 2 | – | –
[1], 318.15 K, w2 = 0.0033 | – | – | 55.2 ± 0.5
[1], 318.15 K, w2 = 0.00417 | 1056.24 ± 2 | – | –
[1], 318.15 K, w2 = 0.00478 | – | – | 55.5 ± 0.5
[1], 318.15 K, w2 = 0.00567 | 1056.07 ± 2 | – | –
[1], 318.15 K, w2 = 0.00628 | – | – | 55.8 ± 0.5
[1], 318.15 K, w2 = 0.00714 | 1055.94 ± 2 | – | –
[1], 318.15 K, w2 = 0.0078 | – | – | 56.2 ± 0.5
[1], 323.15 K, w2 = 0.00123 | 1053.5 ± 2 | – | –
[1], 323.15 K, w2 = 0.00176 | – | – | 54.6 ± 0.5
[1], 323.15 K, w2 = 0.00269 | 1053.36 ± 2 | – | –
[1], 323.15 K, w2 = 0.0033 | – | – | 54.9 ± 0.5
[1], 323.15 K, w2 = 0.00417 | 1053.23 ± 2 | – | –
[1], 323.15 K, w2 = 0.00478 | – | – | 55.2 ± 0.5
[1], 323.15 K, w2 = 0.00567 | 1053.04 ± 2 | – | –
[1], 323.15 K, w2 = 0.00628 | – | – | 55.5 ± 0.5
[1], 323.15 K, w2 = 0.00714 | 1052.91 ± 2 | – | –
[1], 323.15 K, w2 = 0.0078 | – | – | 55.8 ± 0.5
[1], 328.15 K, w2 = 0.00123 | 1050.5 ± 2 | – | –
[1], 328.15 K, w2 = 0.00176 | – | – | 54.3 ± 0.5
[1], 328.15 K, w2 = 0.00269 | 1050.36 ± 2 | – | –
[1], 328.15 K, w2 = 0.0033 | – | – | 54.6 ± 0.5
[1], 328.15 K, w2 = 0.00417 | 1050.22 ± 2 | – | –
[1], 328.15 K, w2 = 0.00478 | – | – | 54.9 ± 0.5
[1], 328.15 K, w2 = 0.00567 | 1050.05 ± 2 | – | –
[1], 328.15 K, w2 = 0.00628 | – | – | 55.2 ± 0.5
[1], 328.15 K, w2 = 0.00714 | 1049.92 ± 2 | – | –
[1], 328.15 K, w2 = 0.0078 | – | – | 55.5 ± 0.5
[1], 333.15 K, w2 = 0.00123 | 1047.53 ± 2 | – | –
[1], 333.15 K, w2 = 0.00176 | – | – | 54 ± 0.5
[1], 333.15 K, w2 = 0.00269 | 1047.4 ± 2 | – | –
[1], 333.15 K, w2 = 0.0033 | – | – | 54.3 ± 0.5
[1], 333.15 K, w2 = 0.00417 | 1047.21 ± 2 | – | –
[1], 333.15 K, w2 = 0.00478 | – | – | 54.6 ± 0.5
[1], 333.15 K, w2 = 0.00567 | 1047.07 ± 2 | – | –
[1], 333.15 K, w2 = 0.00628 | – | – | 54.9 ± 0.5
[1], 333.15 K, w2 = 0.00714 | 1046.94 ± 2 | – | –
[1], 333.15 K, w2 = 0.0078 | – | – | 55.2 ± 0.5
[1], 338.15 K, w2 = 0.00123 | 1044.55 ± 2 | – | –
[1], 338.15 K, w2 = 0.00176 | – | – | 53.7 ± 0.5
[1], 338.15 K, w2 = 0.00269 | 1044.42 ± 2 | – | –
[1], 338.15 K, w2 = 0.0033 | – | – | 54 ± 0.5
[1], 338.15 K, w2 = 0.00417 | 1044.27 ± 2 | – | –
[1], 338.15 K, w2 = 0.00478 | – | – | 54.3 ± 0.5
[1], 338.15 K, w2 = 0.00567 | 1044.09 ± 2 | – | –
[1], 338.15 K, w2 = 0.00628 | – | – | 54.5 ± 0.5
[1], 338.15 K, w2 = 0.00714 | 1043.94 ± 2 | – | –
[1], 338.15 K, w2 = 0.0078 | – | – | 54.8 ± 0.5
[2], 303.15 K, w2 = 0.00176 | – | 1.5323 ± 0.003 | –
[2], 303.15 K, w2 = 0.00319 | – | 1.5321 ± 0.003 | –
[2], 303.15 K, w2 = 0.00477 | – | 1.5319 ± 0.003 | –
[2], 303.15 K, w2 = 0.00627 | – | 1.5317 ± 0.003 | –
[2], 303.15 K, w2 = 0.0078 | – | 1.5315 ± 0.003 | –
[2], 308.15 K, w2 = 0.00176 | – | 1.5306 ± 0.003 | –
[2], 308.15 K, w2 = 0.00319 | – | 1.5303 ± 0.003 | –
[2], 308.15 K, w2 = 0.00477 | – | 1.5301 ± 0.003 | –
[2], 308.15 K, w2 = 0.00627 | – | 1.5298 ± 0.003 | –
[2], 308.15 K, w2 = 0.0078 | – | 1.5296 ± 0.003 | –
[2], 313.15 K, w2 = 0.00176 | – | 1.5283 ± 0.003 | –
[2], 313.15 K, w2 = 0.00319 | – | 1.5281 ± 0.003 | –
[2], 313.15 K, w2 = 0.00477 | – | 1.5279 ± 0.003 | –
[2], 313.15 K, w2 = 0.00627 | – | 1.5277 ± 0.003 | –
[2], 313.15 K, w2 = 0.0078 | – | 1.5275 ± 0.003 | –
[2], 318.15 K, w2 = 0.00176 | – | 1.5267 ± 0.003 | –
[2], 318.15 K, w2 = 0.00319 | – | 1.5265 ± 0.003 | –
[2], 318.15 K, w2 = 0.00477 | – | 1.5262 ± 0.003 | –
[2], 318.15 K, w2 = 0.00627 | – | 1.526 ± 0.003 | –
[2], 318.15 K, w2 = 0.0078 | – | 1.5258 ± 0.003 | –
[2], 323.15 K, w2 = 0.00176 | – | 1.525 ± 0.003 | –
[2], 323.15 K, w2 = 0.00319 | – | 1.5248 ± 0.003 | –
[2], 323.15 K, w2 = 0.00477 | – | 1.5245 ± 0.003 | –
[2], 323.15 K, w2 = 0.00627 | – | 1.5243 ± 0.003 | –
[2], 323.15 K, w2 = 0.0078 | – | 1.5241 ± 0.003 | –
[2], 328.15 K, w2 = 0.00176 | – | 1.5234 ± 0.003 | –
[2], 328.15 K, w2 = 0.00319 | – | 1.5232 ± 0.003 | –
[2], 328.15 K, w2 = 0.00477 | – | 1.523 ± 0.003 | –
[2], 328.15 K, w2 = 0.00627 | – | 1.5227 ± 0.003 | –
[2], 328.15 K, w2 = 0.0078 | – | 1.5225 ± 0.003 | –
[2], 333.15 K, w2 = 0.00176 | – | 1.5214 ± 0.003 | –
[2], 333.15 K, w2 = 0.00319 | – | 1.5212 ± 0.003 | –
[2], 333.15 K, w2 = 0.00477 | – | 1.5209 ± 0.003 | –
[2], 333.15 K, w2 = 0.00627 | – | 1.5207 ± 0.003 | –
[2], 333.15 K, w2 = 0.0078 | – | 1.5204 ± 0.003 | –
[2], 338.15 K, w2 = 0.00176 | – | 1.5199 ± 0.003 | –
[2], 338.15 K, w2 = 0.00319 | – | 1.5197 ± 0.003 | –
[2], 338.15 K, w2 = 0.00477 | – | 1.5194 ± 0.003 | –
[2], 338.15 K, w2 = 0.00627 | – | 1.5192 ± 0.003 | –
[2], 338.15 K, w2 = 0.0078 | – | 1.5189 ± 0.003 | –
